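All cell lines were grown in 96-well plates and treated with compound for 48 hours. Here, GI50 denotes the concentration required for 50% inhibition of growth.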 Active and inactive are the calls of the source. Rule as the data show it: active = GI50 up to about 1.1 µM and inactive = higher.
How the values were obtained:
Assay in all cases: NCI anticancer screen, dose series, 48 h
DMS-114 = tested on: DMS-114
SNB-19 = tested on: SNB-19
CCRF-CEM = tested on: CCRF-CEM
OVCAR-4 = tested on: OVCAR-4
KM-20L2 = tested on: KM-20L2
XF498 = tested on: XF498
M14 = tested on: M14
HOP-92 = tested on: HOP-92
UACC-62 = tested on: UACC-62
NCI-H460 = tested on: NCI-H460
COLO 205 = tested on: COLO 205
M19-MEL = tested on: M19-MEL
NCI-H23 = tested on: NCI-H23
HOP-18 = tested on: HOP-18
SK-OV-3 = tested on: SK-OV-3
U-251 = tested on: U-251
LOX IMVI = tested on: LOX IMVI
RXF 631 = tested on: RXF 631
MOLT-4 = tested on: MOLT-4
IGROV-1 = tested on: IGROV-1
ACHN = tested on: ACHN
SN12C = tested on: SN12C
K562 = tested on: K562
HCT-15 = tested on: HCT-15
SNB-78 = tested on: SNB-78
SF-539 = tested on: SF-539
LXFL 529 = tested on: LXFL 529
RXF 393 = tested on: RXF 393
A498 = tested on: A498
DMS-273 = tested on: DMS-273
HL-60 = tested on: HL-60
SK-MEL-28 = tested on: SK-MEL-28
RPMI-8226 = tested on: RPMI-8226
HCC 2998 = tested on: HCC 2998
CAKI-1 = tested on: CAKI-1
OVCAR-8 = tested on: OVCAR-8
HCT-116 = tested on: HCT-116
KM12 = tested on: KM12
HT-29 = tested on: HT-29
SR = tested on: SR
UACC-257 = tested on: UACC-257
786-0 = tested on: 786-0
DLD-1 = tested on: DLD-1
SF-295 = tested on: SF-295
SK-MEL-2 = tested on: SK-MEL-2
NCI-H522 = tested on: NCI-H522
Malme-3M = tested on: Malme-3M
SW-620 = tested on: SW-620
TK-10 = tested on: TK-10
HOP-62 = tested on: HOP-62
UO-31 = tested on: UO-31
OVCAR-5 = tested on: OVCAR-5
OVCAR-3 = tested on: OVCAR-3
NCI-H226 = tested on: NCI-H226
A549 = tested on: A549
SK-MEL-5 = tested on: SK-MEL-5
SNB-75 = tested on: SNB-75
EKVX = tested on: EKVX
SF-268 = tested on: SF-268

Compound: O=C(O)CCC1CCc2cccc(O)c2C1=O (stereo not drawn)
- GI50 (DMS-114): > 100 µM (inactive)
- GI50 (SNB-19): > 100 µM (inactive)
- GI50 (CCRF-CEM): > 100 µM (inactive)
- GI50 (OVCAR-4): > 100 µM (inactive)
- GI50 (KM-20L2): > 100 µM (inactive)
- GI50 (XF498): > 100 µM (inactive)
- GI50 (M14): > 100 µM (inactive)
- GI50 (HOP-92): > 100 µM (inactive)
- GI50 (UACC-62): > 100 µM (inactive)
- GI50 (NCI-H460): > 100 µM (inactive)
- GI50 (COLO 205): > 100 µM (inactive)
- GI50 (M19-MEL): > 100 µM (inactive)
- GI50 (NCI-H23): > 100 µM (inactive)
- GI50 (HOP-18): > 100 µM (inactive)
- GI50 (SK-OV-3): > 100 µM (inactive)
- GI50 (U-251): > 100 µM (inactive)
- GI50 (LOX IMVI): > 100 µM (inactive)
- GI50 (RXF 631): > 100 µM (inactive)
- GI50 (MOLT-4): > 100 µM (inactive)
- GI50 (IGROV-1): > 100 µM (inactive)
- GI50 (ACHN): > 100 µM (inactive)
- GI50 (SN12C): > 100 µM (inactive)
- GI50 (K562): > 100 µM (inactive)
- GI50 (HCT-15): > 100 µM
- GI50 (SNB-78): > 100 µM (inactive)
- GI50 (SF-539): > 100 µM (inactive)
- GI50 (LXFL 529): > 100 µM (inactive)
- GI50 (RXF 393): > 100 µM (inactive)
- GI50 (A498): > 100 µM (inactive)
- GI50 (DMS-273): > 100 µM (inactive)
- GI50 (HL-60): > 100 µM (inactive)
- GI50 (SK-MEL-28): > 100 µM (inactive)
- GI50 (RPMI-8226): > 100 µM (inactive)

Compound: CCCCNC(=O)NNC(=O)c1cc(/C=C/c2cccc([N+](=O)[O-])c2)ncn1
- GI50 (HCC 2998): > 100 µM (inactive)
- GI50 (CAKI-1): > 100 µM (inactive)
- GI50 (DMS-114): 51.3 µM (inactive)
- GI50 (OVCAR-8): > 100 µM (inactive)
- GI50 (HCT-116): 20 µM (inactive)
- GI50 (SNB-19): > 100 µM (inactive)
- GI50 (CCRF-CEM): > 100 µM (inactive)
- GI50 (KM12): > 100 µM (inactive)
- GI50 (HT-29): > 100 µM (inactive)
- GI50 (KM-20L2): > 100 µM (inactive)
- GI50 (XF498): > 100 µM (inactive)
- GI50 (SR): 34.8 µM (inactive)
- GI50 (UACC-257): > 100 µM (inactive)
- GI50 (786-0): > 100 µM (inactive)
- GI50 (M14): > 100 µM (inactive)
- GI50 (HOP-92): > 100 µM (inactive)
- GI50 (UACC-62): > 100 µM (inactive)
- GI50 (NCI-H460): > 100 µM (inactive)
- GI50 (DLD-1): 37.7 µM (inactive)
- GI50 (SF-295): > 100 µM (inactive)
- GI50 (COLO 205): > 100 µM (inactive)
- GI50 (M19-MEL): > 100 µM (inactive)
- GI50 (NCI-H23): > 100 µM (inactive)
- GI50 (SK-MEL-2): > 100 µM (inactive)
- GI50 (NCI-H522): > 100 µM (inactive)
- GI50 (HOP-18): > 100 µM (inactive)
- GI50 (SK-OV-3): > 100 µM (inactive)
- GI50 (U-251): 21.1 µM (inactive)
- GI50 (LOX IMVI): 34.2 µM (inactive)
- GI50 (RXF 631): > 100 µM (inactive)
- GI50 (Malme-3M): > 100 µM (inactive)
- GI50 (MOLT-4): > 100 µM (inactive)
- GI50 (SW-620): 16.7 µM (inactive)
- GI50 (TK-10): > 100 µM (inactive)
- GI50 (IGROV-1): > 100 µM (inactive)
- GI50 (ACHN): > 100 µM (inactive)
- GI50 (HOP-62): > 100 µM (inactive)
- GI50 (SN12C): > 100 µM (inactive)
- GI50 (UO-31): > 100 µM (inactive)
- GI50 (K562): > 100 µM (inactive)
- GI50 (HCT-15): 87.3 µM
- GI50 (OVCAR-5): > 100 µM (inactive)
- GI50 (OVCAR-3): > 100 µM (inactive)
- GI50 (SNB-78): > 100 µM (inactive)
- GI50 (NCI-H226): > 100 µM (inactive)
- GI50 (LXFL 529): > 10 µM (inactive)
- GI50 (A549): > 100 µM (inactive)
- GI50 (RXF 393): > 100 µM (inactive)
- GI50 (A498): > 100 µM (inactive)
- GI50 (SK-MEL-5): > 100 µM (inactive)
- GI50 (DMS-273): > 100 µM (inactive)
- GI50 (SNB-75): > 100 µM (inactive)
- GI50 (EKVX): > 100 µM (inactive)
- GI50 (HL-60): > 100 µM (inactive)
- GI50 (SK-MEL-28): > 100 µM (inactive)
- GI50 (RPMI-8226): 25.4 µM (inactive)
- GI50 (SF-268): > 100 µM (inactive)

Compound: CCCC(OCC)(OCC)OCC
- GI50 (HCC 2998): > 100 µM (inactive)
- GI50 (CAKI-1): > 100 µM (inactive)
- GI50 (DMS-114): 69 µM (inactive)
- GI50 (OVCAR-8): > 100 µM (inactive)
- GI50 (HCT-116): 27.5 µM (inactive)
- GI50 (SNB-19): > 100 µM (inactive)
- GI50 (CCRF-CEM): > 100 µM (inactive)
- GI50 (OVCAR-4): > 100 µM (inactive)
- GI50 (KM12): > 100 µM (inactive)
- GI50 (HT-29): > 100 µM (inactive)
- GI50 (KM-20L2): > 100 µM (inactive)
- GI50 (XF498): > 100 µM (inactive)
- GI50 (SR): > 100 µM (inactive)
- GI50 (UACC-257): > 100 µM (inactive)
- GI50 (786-0): > 100 µM (inactive)
- GI50 (M14): > 100 µM (inactive)
- GI50 (HOP-92): > 100 µM (inactive)
- GI50 (UACC-62): > 100 µM (inactive)
- GI50 (NCI-H460): > 100 µM (inactive)
- GI50 (DLD-1): > 100 µM (inactive)
- GI50 (SF-295): > 100 µM (inactive)
- GI50 (COLO 205): > 100 µM (inactive)
- GI50 (M19-MEL): > 100 µM (inactive)
- GI50 (NCI-H23): > 100 µM (inactive)
- GI50 (SK-MEL-2): > 100 µM (inactive)
- GI50 (NCI-H522): > 100 µM (inactive)
- GI50 (HOP-18): > 100 µM (inactive)
- GI50 (SK-OV-3): > 100 µM (inactive)
- GI50 (U-251): > 100 µM (inactive)
- GI50 (LOX IMVI): 48.8 µM (inactive)
- GI50 (RXF 631): > 100 µM (inactive)
- GI50 (Malme-3M): > 100 µM (inactive)
- GI50 (MOLT-4): > 100 µM (inactive)
- GI50 (TK-10): > 100 µM (inactive)
- GI50 (IGROV-1): > 100 µM (inactive)
- GI50 (ACHN): > 100 µM (inactive)
- GI50 (HOP-62): > 100 µM (inactive)
- GI50 (SN12C): > 100 µM (inactive)
- GI50 (UO-31): > 100 µM (inactive)
- GI50 (K562): > 100 µM (inactive)
- GI50 (HCT-15): > 100 µM
- GI50 (OVCAR-5): > 100 µM (inactive)
- GI50 (OVCAR-3): > 100 µM (inactive)
- GI50 (SNB-78): > 100 µM (inactive)
- GI50 (NCI-H226): > 100 µM (inactive)
- GI50 (SF-539): > 100 µM (inactive)
- GI50 (LXFL 529): > 100 µM (inactive)
- GI50 (A549): > 100 µM (inactive)
- GI50 (RXF 393): > 100 µM (inactive)
- GI50 (A498): > 100 µM (inactive)
- GI50 (SK-MEL-5): > 100 µM (inactive)
- GI50 (DMS-273): 52.1 µM (inactive)
- GI50 (SNB-75): > 100 µM (inactive)
- GI50 (EKVX): > 100 µM (inactive)
- GI50 (HL-60): > 100 µM (inactive)
- GI50 (SK-MEL-28): > 100 µM (inactive)
- GI50 (RPMI-8226): > 100 µM (inactive)
- GI50 (SF-268): > 100 µM (inactive)
